Measured values as given in patent US12495798B2, “Nicotinamide compound and herbicidal composition comprising compound” (KOREA RESEARCH INSTITUTE OF CHEMICAL TECHNOLOGY, priority 2019, dated 2025).

What was measured:
Format in all cases: in vivo
cocklebur [1] = assay: Herbicidal activity test against upland field weeds (foliar treatment test); parameters: key to Foliar treatment herbicidal activity, Cocklebur: 0 (no control); 100 (complete control); details: 50 g ai/ha, scale 0-100; for pest or weed control at 50 g/ha: Xanthium strumarium
Outline: (§1)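 Greenhouse-grown plants (30±5 °C, 14/10 h light/dark) foliar hand-sprayed with compound in 50% acetone, 0.1% Tween-20 at 50 or 75 g a.i./ha. Control visually scored 0 (none) to 100 (complete) versus untreated after 14 days, or 21 days if needed.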

indian jointvetch [2] = assay: as above; details: 50 g ai/ha, scale 0-100
Outline: as §1

crabgrass [3] = assay: Herbicidal activity test against upland field weeds (soil treatment test); parameters: key to Soil treatment herbicidal activity, Crabgrass: 0 (no control); 100 (complete control); details: 50 g ai/ha, scale 0 (no control) to 100 (complete control)
Experimental: (§2) Experimental Example 2: Herbicidal Activity Test Against Upland Field Weeds (Soil Treatment Test) Soil treatment was performed as follows: After filling a square plastic pot having a surface area of 350 cm^2 with sandy loam mixed with 1 g per pot (350 cm^2) of horticultural mixed fertilizer (N:P:K=11:10:11), seeds (10˜15 grains) or rootstocks (2 pieces) of 5 kinds of grassy weeds of sorghum, barnyard grass, quack grass, crabgrass, fall panicum, and 5 kinds of broadleaf weeds of black nightshade, indian jointvetch, velvetleaf, cocklebur, bindweed, which had been stored in a low temperature (6° C.), were sown. The day after sowing, test compound solutions were made by diluting with a preparation solution (including 50% acetone, 0.1% Tween-20) so that the final treatment amount of the test compounds was 50 or 75 g a.i./ha. The prepared test compound solution was used for treating soil surface by hand-spraying 14 mL per pot in a fume hood. After the treatment, it was managed under the same greenhouse conditions (average temperature 30±5° C., light/dark=14/10 hours), and after 14 days (after 21 days if necessary), the external symptoms and efficacy were investigated according to the scale of 0 (no control) to 100 (complete control). The results of Table 8 were obtained by evaluating weed control value to the untreated control by conducting visual assessment.

barnyard grass [4] = assay: as above; parameters: key to Soil treatment herbicidal activity, barnyard grass: 0 (no control); 100 (complete control); details: 50 g ai/ha, scale 0 (no control) to 100 (complete control)
Experimental: as §2

black nightshade [5] = assay: Herbicidal activity test against upland field weeds (foliar treatment test); details: Solanum nigrum, 50 g ai/ha, scale 0-100
Outline: as §1

bindweed [6] = assay: as above; details: 50 g ai/ha, scale 0-100
Outline: as §1

cocklebur [7] = assay: Herbicidal activity test against upland field weeds (soil treatment test); parameters: key to Soil treatment herbicidal activity, Cocklebur: 0 (no control); 100 (complete control); details: 50 g ai/ha, scale 0 (no control) to 100 (complete control)
Experimental: as §2

velvetleaf [8] = assay: as above; parameters: key to Soil treatment herbicidal activity, velvet leaf: 0 (no control); 100 (complete control); details: 50 g ai/ha, scale 0 (no control) to 100 (complete control)
Experimental: as §2

sorghum [9] = assay: as above; parameters: key to Soil treatment herbicidal activity, Sorghum: 0 (no control); 100 (complete control); details: 50 g ai/ha, scale 0 (no control) to 100 (complete control); for plant injury at 50 g/ha: Sorghum
Experimental: as §2

quack grass [10] = assay: Herbicidal activity test against upland field weeds (foliar treatment test); parameters: key to Foliar treatment herbicidal activity, quack grass: 0 (no control); 100 (complete control); details: 50 g ai/ha, scale 0-100
Outline: as §1

black nightshade [11] = assay: Herbicidal activity test against upland field weeds (soil treatment test); parameters: key to Soil treatment herbicidal activity, black nightshade: 0 (no control); 100 (complete control); details: 50 g ai/ha, scale 0 (no control) to 100 (complete control); for pest or weed control at 50 g/ha: Solanum nigrum
Experimental: as §2

sorghum [12] = assay: Herbicidal activity test against upland field weeds (foliar treatment test); details: Sorghum, 50 g ai/ha, scale 0-100
Outline: as §1

velvetleaf [13] = assay: as above; parameters: key to Foliar treatment herbicidal activity, velvet leaf: 0 (no control); 100 (complete control); details: 50 g ai/ha; for pest or weed control at 50 g/ha: Abutilon theophrasti, scale 0-100, read-out: Foliar treatment herbicidal activity, velvet leaf
Outline: as §1

barnyard grass [14] = assay: as above; details: Echinochloa crus-galli, 50 g ai/ha, scale 0-100
Outline: as §1

fall panicum [15] = assay: as above; details: Panicum dichotomiflorum, 50 g ai/ha, scale 0-100
Outline: as §1

quack grass [16] = assay: Herbicidal activity test against upland field weeds (soil treatment test); parameters: key to Soil treatment herbicidal activity, quack grass: 0 (no control); 100 (complete control); details: 50 g ai/ha, scale 0 (no control) to 100 (complete control)
Experimental: as §2

indian jointvetch [17] = assay: as above; parameters: key to Soil treatment herbicidal activity, Indian jointvetch: 0 (no control); 100 (complete control); details: 50 g ai/ha, scale 0 (no control) to 100 (complete control)
Experimental: as §2

crabgrass [18] = assay: Herbicidal activity test against upland field weeds (foliar treatment test); details: Digitaria sanguinalis, 50 g ai/ha, scale 0-100
Outline: as §1

fall panicum [19] = assay: Herbicidal activity test against upland field weeds (soil treatment test); parameters: key to Soil treatment herbicidal activity, Fall panicum: 0 (no control); 100 (complete control); details: 50 g ai/ha, scale 0 (no control) to 100 (complete control); for pest or weed control at 50 g/ha: Panicum dichotomiflorum
Experimental: as §2

bindweed [20] = assay: as above; details: 50 g ai/ha, scale 0 (no control) to 100 (complete control)
Experimental: as §2

SMILES	pest or weed control at 50 g/ha (cocklebur [1]) [%]	pest or weed control at 50 g/ha (indian jointvetch [2]) [%]	Soil treatment herbicidal activity, barnyard grass (barnyard grass [4])	pest or weed control at 50 g/ha (black nightshade [5]) [%]	pest or weed control at 50 g/ha (bindweed [6]) [%]	Soil treatment herbicidal activity, Cocklebur (cocklebur [7])	Soil treatment herbicidal activity, velvet leaf (velvetleaf [8])	plant injury at 50 g/ha (sorghum [9]) [%]	Foliar treatment herbicidal activity, quack grass (quack grass [10])	Soil treatment herbicidal activity, black nightshade (black nightshade [11])	plant injury at 50 g/ha (sorghum [12]) [%]	pest or weed control at 50 g/ha (velvetleaf [13]) [%]	pest or weed control at 50 g/ha (barnyard grass [14]) [%]	pest or weed control at 50 g/ha (fall panicum [15]) [%]	Soil treatment herbicidal activity, quack grass (quack grass [16])	Soil treatment herbicidal activity, Indian jointvetch (indian jointvetch [17])	pest or weed control at 50 g/ha (crabgrass [18]) [%]	pest or weed control at 50 g/ha (fall panicum [19]) [%]	Soil treatment herbicidal activity, Crabgrass (crabgrass [3])	Soil treatment herbicidal activity, Sorghum (sorghum [9])	other results
CON(Cc1nnn(C)n1)Cc1nc(C(F)(F)Cl)ccc1C(=O)Nc1nnnn1C [Compound No. 2-79, 6-(chlorodifluoromethyl)-2-((methoxy((2-methyl-2H-tetrazol-5-yl)methyl)amino)methyl)-N-(1-methyl-1H-tetrazol-5-yl)nicotinamide]	60	70	100	98	40	0	100	30	0	100	20	80	80	50	0	100	70	98	–	–	pest or weed control at 50 g/ha (crabgrass [3]; Digitaria sanguinalis): 95%
CON(Cc1nnn(C)n1)Cc1nc(C(F)F)ccc1C(=O)Nc1nnnn1C [Compound No. 2-86, 6-(difluoromethyl)-2-((methoxy((2-methyl-2H-tetrazol-5-yl)methyl)amino)methyl)-N-(1-methyl-1H-tetrazol-5-yl)nicotinamide]	80	80	–	95	40	0	100	–	0	100	30	98	95	50	0	100	70	20	0	0	pest or weed control at 50 g/ha (barnyard grass [4]; Echinochloa crus-galli): 98%
Cn1cnc(COCc2nc(C(F)(F)Cl)ccc2C(=O)Nc2nnnn2C)n1 [Compound No. 2-80, 6-(chlorodifluoromethyl)-2-(((1-methyl-1H-1,2,4-triazol-3-yl)methoxy)methyl)-N-(1-methyl-1H-tetrazol-5-yl)nicotinamide]	40	70	0	98	40	0	–	–	0	–	20	98	80	60	0	–	40	–	0	0	pest or weed control at 50 g/ha (velvetleaf [8]; Abutilon theophrasti, read-out: Soil treatment herbicidal activity, velvet leaf): 98%; pest or weed control at 50 g/ha (black nightshade [11]): 98%; pest or weed control at 50 g/ha (indian jointvetch [17]): 40%; Soil treatment herbicidal activity, Fall panicum (fall panicum [19]): 0
CC(=O)N(C(=O)c1ccc(C(F)(F)F)nc1COCc1nnn(C)n1)c1nnnn1C [Compound No. 2-67, N-acetyl-N-(1-methyl-1H-tetrazol-5-yl)-2-(((2-methyl-2H-tetrazol-5-yl)methoxy)methyl)-6-(trifluoromethyl)nicotinamide]	95	80	100	95	40	100	100	50	0	–	40	80	70	60	0	100	70	90	100	–	pest or weed control at 50 g/ha (bindweed [20]): 70%
CON(Cc1nc(C(F)(F)F)ccc1C(=O)Nc1nnnn1C)Cc1ncnn1C [Compound No. 1-91, 2-((methoxy((1-methyl-1H-1,2,4-triazol-5-yl)methyl)amino)methyl)-N-(1-methyl-1H-tetrazol-5-yl)-6-(trifluoromethyl)nicotinamide]	–	90	0	98	80	0	100	–	0	–	50	–	98	90	0	–	98	–	0	0	Foliar treatment herbicidal activity, Cocklebur (cocklebur [1]): 100; pest or weed control at 50 g/ha (black nightshade [11]): 98%; Foliar treatment herbicidal activity, velvet leaf (velvetleaf [13]; scale 0-100): 100; pest or weed control at 50 g/ha (indian jointvetch [17]): 98%; Soil treatment herbicidal activity, Fall panicum (fall panicum [19]): 0
